The results in this text go back to US20260077069A1, “COMBINATIONS OF CONTRAST AGENTS” (BAYER AKTIENGESELLSCHAFT, priority 2022, published 2026).

The test system of data set [1] is freshly isolated rat hepatocytes. The data set can be described thus: Uptake into freshly isolated rat hepatocytes. The note with it: uptake with OATP1B1/1B3 inhibitor Rifampicine 1:1, each 100 uM. It is filed as cell-based. As for the experimental part: Freshly isolated rat hepatocytes were received as described before (Papeleu P. et al. (2006) Isolation of Rat Hepatocytes. In: Phillips I. R., Shephard E. A. (eds) Cytochrome P450 Protocols. Methods in Molecular Biology, vol 320. Humana Press, Totowa, NJ. https://doi.org/10.1385/1-59259-998-2:229). The rat hepatocytes were incubated (2.5·10^5 cells/well) for 2.5 to 4 h in collagen coated 24-well plates (Fa. Beckton Dickinson Biocoat, cell environments, Collagen I Cellware) in Williams E-medium (Fa. Sigma W1878) in an incubator (37° C., 5% CO2 and […]). After incubation the adherent hepatocytes were washed once with 37° C. Hepes carbonate transport buffer (500 μL/well). The test items and RC3 were prepared from stock solutions (180 to 500 mM concentration) in Hepes carbonate transport buffer at pH 7.4 to reach a final concentration of 100 μmol Gd/L. The specific uptake of the test item or RC3 into rat hepatocytes via OATP1B1 and OATP1B3 was challenged using a known OATP1B1/1B3 inhibitor (Rifampicine, Fa. Sigma R3501, test item and inhibitor 1:1 each 100 µM final concentration). The prepared rat hepatocyte plates were incubated with test solutions (500 μL/well) at 37° C. for 10 min using a thermoshaker (Fa. Grant Bio, PHMP). Triplicates were performed for each test item. After incubating the cells were washed once with cold PBS buffer (Fa. Gibco, Dulbeccos PBS (+)). After washing the intact hepatocytes were lysed by addition of 500 μL cold 0.01% Triton-X 100 in Millipore water for 1 h. The strongly hypo-osmolar water led to cell membrane rupture and the release of the intracellular Gd-compound. After 1 h 500 μL of 10 nM Terbium ICP-MS standard was added in 2% nitric acid and 0.01% Triton 100 before the Gadolinium concentrations in the lysate were measured using ICP-MS (Agilent 8900, singleQuad, integr. Time 0.3 s, no gas, 5 replicates, Gd m/z 157, Tb m/z 159). As a reference standard RC3 is used in the same well plate. The hepatocyte uptake of the test compound is calculated relative to RC3 (resulting in the unit % of RC3).

The nature of data set [2]: Relaxivity measurements at 1.41 T in water and human plasma. It is filed as physicochemical. To be noted: 37° C., normalized to Gd. As to the method: Relaxivity measurements at 1.41 T were performed using a MiniSpec mq60 spectrometer (Bruker Analytik, Karlsruhe, Germany) operating at a resonance frequency of 60 MHz and a temperature of 37° C. The T1 relaxation times were determined using the standard inversion recovery (IR) method with a fixed relaxation delay of at least 5×T1. The variable inversion time (TI) was calculated automatically by the standard software of the MiniSpec mq60 (8 steps). The T2 measurements were performed by using a Carr-Purcell-Meiboom-Gill (CPMG) pulse sequence, applying a relaxation delay of at least 5×T1.
Each relaxivity measurement was performed using three different Gd concentrations (3 concentrations between 0.05 and 2 mM). The T1 and T2 relaxation times of the example compounds were measured in water and human plasma. Human plasma preparation: For each experiment fresh blood was taken from a volunteer using 10 mL citrate-tubes (Sarstedt S-Monovette 02.1067.001, 10 mL, Citrate). The 10 mL citrate-tubes were carefully inverted 10 times to mix blood and anticoagulant and centrifuged for 15 min at 1811 g at RT (Eppendorf, Centrifuge 5810R).
The relaxivities ri (where i=1, 2) were calculated based on the measured relaxation rates Ri in water and plasma:
where Ri(0) represent the relaxation rate of the respective solvent and CGd the concentration of the compound normalized to the Gadolinium. The Gadolinium concentrations of the investigated solutions were verified by Inductively Coupled Plasma Mass Spectrometry (ICP-MS Agilent 7500a, Waldbronn, Germany).

On to `CCCCOc1ccc(CC(C(=O)[O-])N2CCN(CC(=O)[O-])CCN(CC(=O)[O-])CCN(CC(=O)O)CC2)cc1.[Gd+3]` (stereo not shown) [Compound 14], for which the “Inhibition Rifampicine” value in data set [1] turned out to be 98 % inhibition. Further, in data set [2], the r1 human plasma amounted to 13.3 L/mmol/s and the r1 water amounted to 4.3 L/mmol/s.
In data set [2], `C[C@H](C(=O)NCC(=O)N1CCN(C(=O)CNC(=O)[C@@H](C)N2CCN(CC(=O)[O-])CCN(CC(=O)[O-])CCN(CC(=O)[O-])CC2)CC(C(=O)NCCN(CCNC(=O)C2CN(C(=O)CNC(=O)[C@@H](C)N3CCN(CC(=O)[O-])CCN(CC(=O)[O-])CCN(CC(=O)[O-])CC3)CCN(C(=O)CNC(=O)[C@@H](C)N3CCN(CC(=O)[O-])CCN(CC(=O)[O-])CCN(CC(=O)[O-])CC3)C2)C(=O)C2CN(C(=O)CNC(=O)[C@@H](C)N3CCN(CC(=O)[O-])CCN(CC(=O)[O-])CCN(CC(=O)[O-])CC3)CCN(C(=O)CNC(=O)[C@@H](C)N3CCN(CC(=O)[O-])CCN(CC(=O)[O-])CCN(CC(=O)[O-])CC3)C2)C1)N1CCN(CC(=O)[O-])CCN(CC(=O)[O-])CCN(CC(=O)[O-])CC1.[Gd+3].[Gd+3].[Gd+3].[Gd+3].[Gd+3].[Gd+3]` [Compound 5] yielded a r1 human plasma of 14.3 L/mmol/s and a r1 water of 13.0 L/mmol/s.
In data set [2], `CC(C(=O)NCC(=O)NCC(CNC(=O)CNC(=O)C(C)N1CCN(CC(=O)[O-])CCN(CC(=O)[O-])CCN(CC(=O)[O-])CC1)C(=O)NCCN(CCNC(=O)C(CNC(=O)CNC(=O)C(C)N1CCN(CC(=O)[O-])CCN(CC(=O)[O-])CCN(CC(=O)[O-])CC1)CNC(=O)CNC(=O)C(C)N1CCN(CC(=O)[O-])CCN(CC(=O)[O-])CCN(CC(=O)[O-])CC1)C(=O)CNC(=O)C(C)N1CCN(CC(=O)[O-])CCN(CC(=O)[O-])CCN(CC(=O)[O-])CC1)N1CCN(CC(=O)[O-])CCN(CC(=O)[O-])CCN(CC(=O)[O-])CC1.[Gd+3].[Gd+3].[Gd+3].[Gd+3].[Gd+3]` (stereo not shown) [Compound 1] gave a r1 human plasma of 13.0 L/mmol/s and a r1 water of 11.1 L/mmol/s.
As to `O=C([O-])CN1CCN(CC(=O)[O-])CCN(CC(=O)N2CCN(C(=O)CN3CCN(CC(=O)[O-])CCN(CC(=O)[O-])CCN(CC(=O)[O-])CC3)CC(C(=O)N3CC4CN(C(=O)C5CN(C(=O)CN6CCN(CC(=O)[O-])CCN(CC(=O)[O-])CCN(CC(=O)[O-])CC6)CCN(C(=O)CN6CCN(CC(=O)[O-])CCN(CC(=O)[O-])CCN(CC(=O)[O-])CC6)C5)CC(C3)N4)C2)CCN(CC(=O)[O-])CC1.[Gd+3].[Gd+3].[Gd+3].[Gd+3]` [Compound 9], in data set [2], the r1 water came to 7.4 L/mmol/s.
In data set [2], `CC(C(=O)NCC(=O)N1CCN(C(=O)CNC(=O)C(C)N2CCN(CC(=O)[O-])CCN(CC(=O)[O-])CCN(CC(=O)[O-])CC2)CCN(C(=O)CNC(=O)C(C)N2CCN(CC(=O)[O-])CCN(CC(=O)[O-])CCN(CC(=O)[O-])CC2)CCN(C(=O)CNC(=O)C(C)N2CCN(CC(=O)[O-])CCN(CC(=O)[O-])CCN(CC(=O)[O-])CC2)CC1)N1CCN(CC(=O)[O-])CCN(CC(=O)[O-])CCN(CC(=O)[O-])CC1.[Gd+3].[Gd+3].[Gd+3].[Gd+3]` (stereo not shown) [Compound 7] displayed a r1 human plasma of 12.1 L/mmol/s and a r1 water of 10.8 L/mmol/s.
`CCOCCOc1ccc(CC(C(=O)[O-])N2CCN(CC(=O)[O-])CCN(C(CC)C(=O)O)CCN(CC(=O)[O-])CC2)cc1.[Gd+3]` (stereo not shown) [Compound 13]: the “Inhibition Rifampicine” value in data set [1] was 99 % inhibition. In data set [2], the r1 human plasma stood at 7.4 L/mmol/s and the r1 water turned out to be 4.5 L/mmol/s.
The matching figures for `O=C([O-])CN1CCN(CC(=O)[O-])CCN(C(Cc2ccc(OCC(F)(F)C(F)F)cc2)C(=O)[O-])CCN(CC(=O)O)CC1.[Gd+3]` (stereo not shown) [Compound 21]: 90 % inhibition, 10.8 L/mmol/s and 3.5 L/mmol/s.
Consider `CCOCCOCCOc1ccc(CCC[C@H](C(=O)O)N2CCN([C@H](CO)C(=O)[O-])CCN([C@H](CO)C(=O)[O-])CCN([C@H](CO)C(=O)[O-])CC2)cc1.[Gd+3]` [Compound 16], for which the “Inhibition Rifampicine” value in data set [1] is reported as 92 % inhibition. For the same compound, in data set [2], the r1 human plasma amounted to 9.0 L/mmol/s and the r1 water is 5.3 L/mmol/s.
The like results for `CCOCCOCCOc1ccc(CC(C(=O)[O-])N2CCN(CC(=O)[O-])CCN(C(CC)C(=O)[O-])CCN(CC(=O)O)CC2)cc1.[Gd+3]` (stereo not shown) [Compound 20] were, in that order, 97 % inhibition, 6.9 L/mmol/s and 4.8 L/mmol/s.
In data set [2], `O=C([O-])CN1CCN(CC(=O)[O-])CCN(CC(=O)NCC(CNC(=O)CN2CCN(CC(=O)[O-])CCN(CC(=O)[O-])CCN(CC(=O)[O-])CC2)(CNC(=O)CN2CCN(CC(=O)[O-])CCN(CC(=O)[O-])CCN(CC(=O)[O-])CC2)CNC(=O)CN2CCN(CC(=O)[O-])CCN(CC(=O)[O-])CCN(CC(=O)[O-])CC2)CCN(CC(=O)[O-])CC1.[Gd+3].[Gd+3].[Gd+3].[Gd+3]` [Compound 10] registered a r1 human plasma of 9.7 L/mmol/s and a r1 water of 7.3 L/mmol/s.
The like results for `CC(C(=O)NCC(=O)NCC(NC(=O)CNC(=O)C(C)N1CCN(CC(=O)[O-])CCN(CC(=O)[O-])CCN(CC(=O)[O-])CC1)C(=O)N1CC23CN(C(=O)C(CNC(=O)CNC(=O)C(C)N4CCN(CC(=O)[O-])CCN(CC(=O)[O-])CCN(CC(=O)[O-])CC4)NC(=O)CNC(=O)C(C)N4CCN(CC(=O)[O-])CCN(CC(=O)[O-])CCN(CC(=O)[O-])CC4)CC2(C1)CN(C(=O)C(CNC(=O)CNC(=O)C(C)N1CCN(CC(=O)[O-])CCN(CC(=O)[O-])CCN(CC(=O)[O-])CC1)NC(=O)CNC(=O)C(C)N1CCN(CC(=O)[O-])CCN(CC(=O)[O-])CCN(CC(=O)[O-])CC1)C3)N1CCN(CC(=O)[O-])CCN(CC(=O)[O-])CCN(CC(=O)[O-])CC1.[Gd+3].[Gd+3].[Gd+3].[Gd+3].[Gd+3].[Gd+3]` (stereo not shown) [Compound 8] were, in that order, 14.6 L/mmol/s and 12.5 L/mmol/s.
For `CCCC(C(=O)[O-])N1CCN(CC(=O)[O-])CCN(C(Cc2ccc(OCC)cc2)C(=O)O)CCN(CC(=O)[O-])CC1.[Gd+3]` (stereo not shown) [Compound 17], the “Inhibition Rifampicine” value in data set [1] is listed as 99 % inhibition. In data set [2], this compound came in with a r1 human plasma of 7.5 L/mmol/s and a r1 water of 4.4 L/mmol/s.
The like results for `CCOc1ccc(CC2CN(CC(=O)[O-])CCN(CC(=O)[O-])CCN(CC(=O)O)CCN2CC(=O)[O-])cc1.[Gd+3]` (stereo not shown) [Compound 23] were, in that order, 96 % inhibition, 6.2 L/mmol/s and 4.5 L/mmol/s.
Consider `CCCCOc1ccc(CCCC(C(=O)O)N2CCN(CC(=O)O)CCN(CC(=O)O)CCN(CC(=O)O)CC2)cc1` (stereo not shown) [Compound 18], for which the “Inhibition Rifampicine” value in data set [1] is listed as 94 % inhibition. In addition, in data set [2], the r1 human plasma stood at 15.8 L/mmol/s and the r1 water came out at 4.4 L/mmol/s.
In data set [2], `CC(C(=O)NCC(=O)NCC(CNC(=O)CNC(=O)C(C)N1CCN(CC(=O)[O-])CCN(CC(=O)[O-])CCN(CC(=O)[O-])CC1)C(=O)NCCN(CCNC(=O)C(CNC(=O)CNC(=O)C(C)N1CCN(CC(=O)[O-])CCN(CC(=O)[O-])CCN(CC(=O)[O-])CC1)CNC(=O)CNC(=O)C(C)N1CCN(CC(=O)[O-])CCN(CC(=O)[O-])CCN(CC(=O)[O-])CC1)C(=O)C(CNC(=O)CNC(=O)C(C)N1CCN(CC(=O)[O-])CCN(CC(=O)[O-])CCN(CC(=O)[O-])CC1)CNC(=O)CNC(=O)C(C)N1CCN(CC(=O)[O-])CCN(CC(=O)[O-])CCN(CC(=O)[O-])CC1)N1CCN(CC(=O)[O-])CCN(CC(=O)[O-])CCN(CC(=O)[O-])CC1.[Gd+3].[Gd+3].[Gd+3].[Gd+3].[Gd+3].[Gd+3]` (stereo not shown) [Compound 2] showed a r1 human plasma of 13.9 L/mmol/s and a r1 water of 12.1 L/mmol/s.
